Results published in patent publication US9255272B2, “Use of inhibitors of leukotriene B4 receptor BLT2 for treating asthma” (Korea University Research & Business Foundation, priority 2007, dated 2016).

Key:
[1] = tested on: BLT2 mRNA; assay: BLT2 mRNA level in lung of OVA-challenged mice (semiquantitative RT-PCR, real-time PCR); format: in vivo, mouse
Procedure: Female BALB/c mice and C57BL/6 mice (7 weeks old; 18-20 g) were obtained from Orientbion Inc. (Seoungnam, Korea). Sensitization and challenge were carried out as described previously with some modification (28). Briefly, female C57BL/6 mice (7 weeks old; 18-20 g) were immunized by intraperitoneal (i.p.) injection of 200 μg ovalbumin (OVA) emulsified in 2.5 mg of adjuvant aluminum hydroperoxide gel (alum) (Pierce, Rockford, Ill.). A second i.p. injection of 20 μg OVA adsorbed onto alum (2.5 mg) was administered 10 days later. After an additional 10 days, mice were exposed to an aerosol of 1% OVA in saline for 30 min daily on 3 consecutive days. On day 25, mice were finally challenged by provocation with 10% OVA aerosol. […]
(§1) Total RNA was extracted from lung samples using Easy-blue RNA extraction reagent (Intron, Korea). […] For the semiquantitative analysis of transcripts, the optimal PCR conditions were first determined by linear amplification of glyceraldehyde-3-phosphate dehydrogenase (GAPDH). […]
as §1

[2] = tested on: OVA-challenged mice; assay: Eosinophil infiltration in BAL fluid of OVA-challenged mice; format: in vivo, mouse; conditions: C57BL/6 mice, 1.6 mg/kg i.v. 24 hr and 1 hr before 10% OVA challenge, 48 hr
Procedure: Female BALB/c mice and C57BL/6 mice (7 weeks old; 18-20 g) were obtained from Orientbion Inc. (Seoungnam, Korea). Sensitization and challenge were carried out as described previously with some modification (28). Briefly, female C57BL/6 mice (7 weeks old; 18-20 g) were immunized by intraperitoneal (i.p.) injection of 200 μg ovalbumin (OVA) emulsified in 2.5 mg of adjuvant aluminum hydroperoxide gel (alum) (Pierce, Rockford, Ill.). A second i.p. injection of 20 μg OVA adsorbed onto alum (2.5 mg) was administered 10 days later. After an additional 10 days, mice were exposed to an aerosol of 1% OVA in saline for 30 min daily on 3 consecutive days. On day 25, mice were finally challenged by provocation with 10% OVA aerosol. For inhibition experiments, sense or antisense BLT2 (1.6 mg/kg) was injected intravenously 24 h and then 1 h before the 10% OVA challenge. The mice were then killed on day 27 to assess asthmatic phenotypes. Antisense BLT2 oligonucleotide (5′-[…]-3′ (SEQ ID NO: 15)), sense BLT2 oligonucleotide (5′-[…]-3′ (SEQ ID NO: 16)).
Inflammatory cells in the BAL fluid were collected by centrifugation (1,000 g for 3 min) and washed once in PBS. Cells were counted using a hemocytometer, and viability was assessed by trypan blue exclusion. […]

Compound: CCc1cc(C(C)=O)c(O)cc1OCCCCCC(C)(C)c1nnn[nH]1 [LY255283, 1-[5-ethyl-2-hydroxy-4-[[6-methyl-6-(1H-tetrazol-5-yl)heptyl]oxy]phenyl]-ethanone, reference compound]
- level of BLT2 mRNA in the lung ([1]; BALB/c mice, LY255283 2.5 mg/kg i.v. 1 hr before 1% OVA challenge, 48 h after challenge): significantly reduced

Compound: antisense BLT2: Antisense BLT2 oligonucleotide 5′-GCTCAGTAGTGTCTCATTCC-3′ (SEQ ID NO: 15) (listed as DNA, chemistry not fully specified)
- BLT2 expression in the lung (mRNA) ([1]; C57BL/6 mice, 1.6 mg/kg i.v. 24 hr and 1 hr before 10% OVA challenge, 48 hr after challenge): reduced
- reduction of eosinophil infiltration in BAL fluids [2]: ~87%
